From the NIST ThermoML archive (doi:10.1021/je1011828)

Legend:
[1] = Liquid; for thermal conductivity: 101.33 kPa, Hot wire method; for viscosity / mass density: 101 kPa; for viscosity: Capillary tube (Ostwald / Ubbelohde) method; for mass density: Pycnometric method
[2] = wn = mass fraction of the nth substance listed; settings: 101 kPa, Liquid; for viscosity: Capillary tube (Ostwald / Ubbelohde) method; for thermal conductivity: Hot wire method; for mass density: Pycnometric method

CCOC(F)(F)C(F)(F)C(F)(F)C(F)(F)F [1-ethoxy-1,1,2,2,3,3,4,4,4-nonafluorobutane]
[1]
Settings | mass density [kg/m3] | thermal conductivity [W/m/K] | viscosity [mPa·s]
278.8 K | – | 0.0712 | –
297.8 K | 1417 | – | 0.6065
298.2 K | 1417 | 0.0662 | 0.6065
300.6 K | – | 0.0644 | –
314.1 K | – | 0.0616 | –
328.3 K | – | 0.059 | –
344.1 K | – | 0.0563 | –

CCOC(F)(F)C(F)(F)C(F)(F)C(F)(F)F [1-ethoxy-1,1,2,2,3,3,4,4,4-nonafluorobutane] + CCCCOCC
[2], 298.2 K
Settings | mass density [kg/m3] | thermal conductivity [W/m/K] | viscosity [mPa·s]
w2 = 0 | 1417 | 0.0662 | 0.6065
w2 = 0.1 | 1293.4 | 0.0664 | 0.5458
w2 = 0.2 | 1187.4 | 0.0707 | 0.5042
w2 = 0.4 | 1024.9 | 0.0774 | 0.4379
w2 = 0.6 | 907.4 | 0.0921 | 0.4077
w2 = 0.8 | 813.7 | 0.1085 | 0.397

CCOC(F)(F)C(F)(F)C(F)(F)C(F)(F)F [1-ethoxy-1,1,2,2,3,3,4,4,4-nonafluorobutane] + CO
[2], 297.8 K
Settings | mass density [kg/m3] | thermal conductivity [W/m/K] | viscosity [mPa·s]
w2 = 0 | 1417 | – | 0.6065
w2 = 0.1 | 1357 | 0.0729 | 0.6034
w2 = 0.2 | 1294.4 | 0.0794 | 0.6802
w2 = 0.4 | 1058.4 | 0.0948 | 0.6089
w2 = 0.6 | 946.5 | 0.1108 | 0.571
w2 = 0.8 | 852.6 | 0.1326 | 0.5495

CCCCOCC [butyl ethyl ether]
[1]
Settings | mass density [kg/m3] | thermal conductivity [W/m/K] | viscosity [mPa·s]
298.15 K | – | 0.1258 | –
298.2 K | 743 | – | 0.3868
299.62 K | – | 0.125 | –
312.17 K | – | 0.1229 | –
333.39 K | – | 0.1017 | –
354.63 K | – | 0.0949 | –

CCCCOCC [butyl ethyl ether] + CCOC(F)(F)C(F)(F)C(F)(F)C(F)(F)F
[2], 298.2 K, w1 = 1
Settings | mass density [kg/m3] | thermal conductivity [W/m/K] | viscosity [mPa·s]
– | 743 | 0.1258 | 0.3868

CO [methanol]
[1], 297.8 K
Settings | mass density [kg/m3] | viscosity [mPa·s]
– | 791.8 | 0.5463

CO [methanol] + CCOC(F)(F)C(F)(F)C(F)(F)C(F)(F)F
[2], 297.8 K, w1 = 1
Settings | mass density [kg/m3] | viscosity [mPa·s]
– | 791.8 | 0.5463
